Patent US20230165974A1, “COMPOSITIONS AND METHODS FOR DELIVERING PHARMACEUTICALLY ACTIVE AGENTS” (MEDIMMUNE, LLC, priority 2020, published 2023)

What was measured:
C2C12 = experiment: Toxicity of polymer materials in vitro (metabolic/luminescent viability assay); assay type: cell-based
H1299 cells = experiment: as above; assay type: cell-based; conditions: H1299, 16-hour exposure, polymer in OPTI-MEM
Protocol: Material toxicity was assessed using live dead assays.
H1299 cells were seeded in 96-well plates (10000/well). After a 24 h recovery period, cells were treated with 0.1 to 2 μg of PEI (25K, Polyscience, Inc., Philadelphia Pa.), PLL (Alamanda Polymers, Inc., Huntsville Ala., 5 kDa), and P: PLL(M) 33, P: PLL(MN) 33, and P: PLL(TM) 33″ prepared in OPTI-MEM. After a 16-hour exposure, cells were analysed using a live/dead stain or metabolic assay. For the live/dead assay, 10 μL of Calcein AM (2 mM in DMSO) and 5 of propidium iodide (2 mM DMSO) stock solutions were dissolved in 5 mL of PBS. The cells were then washed with PBS twice and staining solution added (100 μL/well). After a 30-minute incubation period at 37° C., the cells were imaged using an IncuCyte plate reader (Sartorius). Alternatively, metabolic assays were performed using Celriter-Glo·Luminescent Assay using the manufacturers standard protocol. Luminescence measurements were collected using a PHERAStar plate reader (BMG LabTech) and IC50 doses were derived by fitting the data in Microsoft excel.

**Q.** With Poly-L-lysine [P: PLL] as the substance, how does the Toxicity/IC50 (C2C12) read?
**A.** 0.33 μg/well

**Q.** And the Toxicity/IC50 (H1299 cells)?
**A.** 0.21 μg/well
